Results taken from the supplement of paper PMC10307832.

Key:
Test in all cases: relative viability (nuclei count vs DMSO), 5 days (fraction); higher = more cells survive
Erlotinib + Alpelisib = compound: C#Cc1cccc(Nc2ncnc3cc(OCCOC)c(OCCOC)cc23)c1 [Erlotinib] + Cc1nc(NC(=O)N2CCC[C@H]2C(N)=O)sc1-c1ccnc(C(C)(C)C(F)(F)F)c1 [Alpelisib] (partner 2 µM)
Outline: (§1)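 Relative viability was taken as the ratio of nuclei in treated wells to nuclei in vehicle wells. Lung cancer cell lines in 1536-well plates received compounds by pin tool one day after seeding, either one drug alone or a fixed anchor-drug dose plus five library-drug doses (not always all listed) in √10 steps. Nuclei were counted on 4× images after 5 days of treatment, and values are medians of duplicate plates.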

Erlotinib + Bortezomib = compound: C#Cc1cccc(Nc2ncnc3cc(OCCOC)c(OCCOC)cc23)c1 [Erlotinib] + CC(C)C[C@H](NC(=O)[C@H](Cc1ccccc1)NC(=O)c1cnccn1)B(O)O [Bortezomib] (partner 0.002 µM)
Outline: as §1

AT9283 + Luminespib = compound: O=C(Nc1c[nH]nc1-c1nc2ccc(CN3CCOCC3)cc2[nH]1)NC1CC1 [AT9283] + CCNC(=O)c1noc(-c2cc(C(C)C)c(O)cc2O)c1-c1ccc(CN2CCOCC2)cc1 [Luminespib] (partner 0.01 µM)
Outline: as §1

AT9283 + Pictilisib = compound: O=C(Nc1c[nH]nc1-c1nc2ccc(CN3CCOCC3)cc2[nH]1)NC1CC1 [AT9283] + CS(=O)(=O)N1CCN(Cc2cc3nc(-c4cccc5[nH]ncc45)nc(N4CCOCC4)c3s2)CC1 [Pictilisib] (partner 1 µM)
Outline: as §1

Erlotinib + AZD7762 = compound: C#Cc1cccc(Nc2ncnc3cc(OCCOC)c(OCCOC)cc23)c1 [Erlotinib] + NC(=O)Nc1cc(-c2cccc(F)c2)sc1C(=O)N[C@H]1CCCNC1 [AZD7762] (partner 0.2 µM)
Outline: as §1

Row | Cell Line | relative viability (Erlotinib + Alpelisib; first compound 0.02 µM) | relative viability (Erlotinib + Alpelisib; first compound 0.2 µM) | relative viability (Erlotinib + Alpelisib; first compound 0.6325 µM) | relative viability (Erlotinib + Alpelisib; first compound 2 µM) | relative viability (Erlotinib + Bortezomib; first compound 0.02 µM) | relative viability (Erlotinib + Bortezomib; first compound 0.2 µM) | relative viability (Erlotinib + Bortezomib; first compound 0.6325 µM) | relative viability (Erlotinib + Bortezomib; first compound 2 µM) | relative viability (AT9283 + Luminespib; first compound 0.003 µM) | relative viability (AT9283 + Luminespib; first compound 0.03 µM) | relative viability (AT9283 + Luminespib; first compound 0.09487 µM) | relative viability (AT9283 + Luminespib; first compound 0.3 µM) | relative viability (AT9283 + Pictilisib; first compound 0.003 µM) | relative viability (AT9283 + Pictilisib; first compound 0.03 µM) | relative viability (AT9283 + Pictilisib; first compound 0.09487 µM) | relative viability (AT9283 + Pictilisib; first compound 0.3 µM) | relative viability (Erlotinib + AZD7762; first compound 0.02 µM) | relative viability (Erlotinib + AZD7762; first compound 0.2 µM) | relative viability (Erlotinib + AZD7762; first compound 0.6325 µM) | relative viability (Erlotinib + AZD7762; first compound 2 µM)
1 | SK-LU-1 | 1.36 | 1.01 | 0.962 | 0.631 | 1.07 | 1.55 | 1.61 | 0.984 | 0.203 | 0.203 | 0.209 | 0.157 | 0.603 | 0.348 | 0.217 | 0.197 | – | – | – | –
2 | HCC-366 | 0.46 | 0.25 | 0.402 | 0.209 | – | 1.08 | 1.1 | 1.06 | – | – | – | – | 0.145 | 0.152 | 0.0339 | 0.0503 | 0.346 | 0.258 | 0.191 | 0.0996
3 | NCI-H1944 | 0.708 | 0.562 | 0.595 | 0.504 | – | – | – | – | 0.778 | 0.483 | 0.195 | 0.205 | 0.327 | 0.307 | 0.221 | 0.224 | 0.541 | 0.419 | 0.538 | 0.387
4 | NCI-H2228 | 0.906 | 0.858 | 0.716 | 0.642 | 1.06 | 1.03 | 1.02 | 0.8 | 0.152 | 0.123 | 0.162 | 0.11 | 0.355 | 0.259 | 0.141 | 0.0664 | – | – | – | –
5 | LK-2 | 0.932 | 0.976 | 1.33 | 1.03 | – | – | – | – | 0.195 | 0.19 | 0.176 | 0.206 | 0.602 | 0.22 | 0.219 | 0.248 | 0.376 | 0.366 | 0.438 | 0.268
6 | NCI-H520 | 0.932 | 0.934 | 1.17 | – | 0.75 | 0.261 | 0.722 | 0.455 | 0.247 | 0.23 | 0.204 | 0.254 | 0.259 | 0.247 | 0.216 | 0.171 | – | – | – | –
7 | UMC-11 | 0.986 | 1.06 | 1.21 | 1.05 | 0.934 | 0.837 | 0.738 | 0.586 | 1.05 | 0.161 | 0.16 | 0.165 | 0.805 | 0.114 | 0.111 | 0.191 | – | – | – | –
8 | COR-L23 | 0.84 | 0.719 | 0.836 | 0.553 | 1.12 | 1.15 | 1.23 | 0.839 | 0.73 | 0.27 | 0.151 | 0.165 | 0.83 | 0.132 | 0.107 | 0.123 | – | – | – | –
9 | NCI-H1395 | 1.34 | 1.08 | 1.08 | 1.07 | – | – | – | – | 0.639 | 0.649 | 0.397 | 0.418 | 0.583 | 0.474 | 0.388 | 0.399 | 0.421 | 0.367 | 0.338 | 0.407
10 | NCI-H1650 | – | – | – | – | 0.204 | 0.204 | 0.176 | 0.178 | 0.21 | 0.182 | 0.219 | 0.231 | 0.586 | 0.273 | 0.178 | 0.218 | – | – | – | –
